Measured values: PubChem BioAssay (NCI)
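Assay format: 96-well plates, 48-hour exposure. TGI denotes the concentration required for complete inhibition of growth.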

What was measured:
Assay in all cases: DTP human tumour cell line panel, 48 h
DU-145 prostate = test system: DU-145 prostate
SF-295 CNS = test system: SF-295 CNS
TK-10 renal = test system: TK-10 renal
HT29 colon = test system: HT29 colon
RXF 393 renal = test system: RXF 393 renal
A498 renal = test system: A498 renal
U251 CNS = test system: U251 CNS
HOP-92 NSCLC = test system: HOP-92 NSCLC
SK-MEL-28 melanoma = test system: SK-MEL-28 melanoma
EKVX NSCLC = test system: EKVX NSCLC
SK-MEL-2 melanoma = test system: SK-MEL-2 melanoma
NCI-H23 lung = test system: NCI-H23 lung
SK-MEL-5 melanoma = test system: SK-MEL-5 melanoma
T-47D breast = test system: T-47D breast
MCF7 breast = test system: MCF7 breast
NCI/ADR-RES ovarian = test system: NCI/ADR-RES ovarian
OVCAR-4 ovarian = test system: OVCAR-4 ovarian
CCRF-CEM leukemia = test system: CCRF-CEM leukemia
SK-OV-3 ovarian = test system: SK-OV-3 ovarian
UACC-257 melanoma = test system: UACC-257 melanoma
PC-3 prostate = test system: PC-3 prostate
NCI-H226 lung = test system: NCI-H226 lung
CAKI-1 renal = test system: CAKI-1 renal
K-562 leukemia = test system: K-562 leukemia
ACHN renal = test system: ACHN renal
MDA-MB-435 = test system: MDA-MB-435
M14 melanoma = test system: M14 melanoma
OVCAR-5 ovarian = test system: OVCAR-5 ovarian
OVCAR-3 ovarian = test system: OVCAR-3 ovarian
HOP-62 NSCLC = test system: HOP-62 NSCLC
786-0 renal = test system: 786-0 renal
SR leukemia = test system: SR leukemia
UO-31 renal = test system: UO-31 renal
RPMI-8226 leukemia = test system: RPMI-8226 leukemia
SF-268 CNS = test system: SF-268 CNS
HL-60(TB) leukemia = test system: HL-60(TB) leukemia
MOLT-4 leukemia = test system: MOLT-4 leukemia
HCT-15 colon = test system: HCT-15 colon
HCT-116 colon = test system: HCT-116 colon
MDA-MB-231 breast = test system: MDA-MB-231 breast
LOX IMVI melanoma = test system: LOX IMVI melanoma
IGROV1 ovarian = test system: IGROV1 ovarian
HCC-2998 colon = test system: HCC-2998 colon
SF-539 CNS = test system: SF-539 CNS
SW-620 colon = test system: SW-620 colon
NCI-H460 lung = test system: NCI-H460 lung
KM12 colon = test system: KM12 colon
NCI-H522 lung = test system: NCI-H522 lung
OVCAR-8 ovarian = test system: OVCAR-8 ovarian
MDA-N = test system: MDA-N
HS 578T breast = test system: HS 578T breast
COLO 205 colon = test system: COLO 205 colon
SNB-19 CNS = test system: SNB-19 CNS
MALME-3M melanoma = test system: MALME-3M melanoma
UACC-62 melanoma = test system: UACC-62 melanoma
BT-549 breast = test system: BT-549 breast
SNB-75 CNS = test system: SNB-75 CNS
SN12C renal = test system: SN12C renal

O=[N+]([O-])c1ccc(/C=N/n2c(CCc3n[nH]c(=S)n3/N=C/c3ccc([N+](=O)[O-])o3)n[nH]c2=S)o1 was tested. Which TGI (DU-145 prostate) did it give?
The TGI was 29.7 µM.

And the TGI (SF-295 CNS)?
Its TGI is over 100 µM.

And the TGI (TK-10 renal)?
Its TGI is over 100 µM.

What about the TGI (HT29 colon) of the same compound?
Its TGI is 86.4 µM.

What about the TGI (RXF 393 renal) of the same compound?
Its TGI is 32.1 µM.

What about the TGI (A498 renal) of the same compound?
The TGI was over 100 µM.

And the TGI (U251 CNS)?
Its TGI is 50 µM.

And the TGI (HOP-92 NSCLC)?
The TGI was 33.6 µM.

And the TGI (SK-MEL-28 melanoma)?
The TGI was 31.5 µM.

What about the TGI (EKVX NSCLC) of the same compound?
The TGI was over 100 µM.

What about the TGI (SK-MEL-2 melanoma) of the same compound?
Its TGI is 42.9 µM.

And the TGI (NCI-H23 lung)?
Its TGI is 34.7 µM.

And the TGI (SK-MEL-5 melanoma)?
The TGI was 33.3 µM.

And the TGI (T-47D breast)?
The TGI was 62.8 µM.

What about the TGI (MCF7 breast) of the same compound?
The TGI was 39.7 µM.

And the TGI (NCI/ADR-RES ovarian)?
Its TGI is 88.7 µM.

And the TGI (OVCAR-4 ovarian)?
The TGI was 36.7 µM.

And the TGI (CCRF-CEM leukemia)?
Its TGI is 67.7 µM.

What about the TGI (SK-OV-3 ovarian) of the same compound?
Its TGI is over 100 µM.

And the TGI (UACC-257 melanoma)?
The TGI was 83.8 µM.

And the TGI (PC-3 prostate)?
The TGI was over 100 µM.

And the TGI (NCI-H226 lung)?
Its TGI is over 100 µM.

What about the TGI (CAKI-1 renal) of the same compound?
The TGI was 44.8 µM.

What about the TGI (K-562 leukemia) of the same compound?
The TGI was over 100 µM.

And the TGI (ACHN renal)?
The TGI was 63.4 µM.

What about the TGI (MDA-MB-435) of the same compound?
The TGI was 35.3 µM.

What about the TGI (M14 melanoma) of the same compound?
Its TGI is 36.1 µM.

And the TGI (OVCAR-5 ovarian)?
The TGI was over 100 µM.

What about the TGI (OVCAR-3 ovarian) of the same compound?
Its TGI is 54.2 µM.

What about the TGI (HOP-62 NSCLC) of the same compound?
Its TGI is 69.8 µM.

And the TGI (786-0 renal)?
The TGI was 31.9 µM.

And the TGI (SR leukemia)?
The TGI was 80.7 µM.

And the TGI (UO-31 renal)?
The TGI was 89.9 µM.

And the TGI (RPMI-8226 leukemia)?
The TGI was over 100 µM.

What about the TGI (SF-268 CNS) of the same compound?
The TGI was 50.7 µM.

What about the TGI (HL-60(TB) leukemia) of the same compound?
The TGI was 97.7 µM.

What about the TGI (MOLT-4 leukemia) of the same compound?
The TGI was 63.9 µM.

What about the TGI (HCT-15 colon) of the same compound?
Its TGI is 32.7 µM.

What about the TGI (HCT-116 colon) of the same compound?
Its TGI is 29 µM.

And the TGI (MDA-MB-231 breast)?
The TGI was 52.4 µM.

And the TGI (LOX IMVI melanoma)?
Its TGI is 50.6 µM.

And the TGI (IGROV1 ovarian)?
Its TGI is over 100 µM.

And the TGI (HCC-2998 colon)?
Its TGI is 33 µM.

What about the TGI (SF-539 CNS) of the same compound?
The TGI was over 100 µM.

And the TGI (SW-620 colon)?
Its TGI is 32.7 µM.

What about the TGI (NCI-H460 lung) of the same compound?
The TGI was over 100 µM.

What about the TGI (KM12 colon) of the same compound?
Its TGI is 64.4 µM.

And the TGI (NCI-H522 lung)?
Its TGI is 47.3 µM.

What about the TGI (OVCAR-8 ovarian) of the same compound?
The TGI was over 100 µM.

What about the TGI (MDA-N) of the same compound?
The TGI was 26.7 µM.

And the TGI (HS 578T breast)?
Its TGI is 62.2 µM.

Which results are given for COc1ccc2[nH]c3c(C)c4ccnc(NCCCN(C)CCCN)c4c(C)c3c2c1?
TGI (DU-145 prostate): 0.652 µM; TGI (SF-295 CNS): 0.66 µM; TGI (TK-10 renal): 1.35 µM; TGI (HT29 colon): 0.17 µM; TGI (COLO 205 colon): 0.253 µM; TGI (SK-MEL-28 melanoma): 1.61 µM; TGI (EKVX NSCLC): 0.538 µM; TGI (SNB-19 CNS): 0.403 µM; TGI (MALME-3M melanoma): 1.19 µM; TGI (SK-MEL-2 melanoma): 0.809 µM; TGI (NCI-H23 lung): 0.87 µM; TGI (SK-MEL-5 melanoma): 0.37 µM; TGI (T-47D breast): 0.814 µM; TGI (MCF7 breast): 0.313 µM; TGI (NCI/ADR-RES ovarian): 2.09 µM; TGI (OVCAR-4 ovarian): 0.442 µM; TGI (CCRF-CEM leukemia): > 32.1 µM; TGI (UACC-62 melanoma): 0.479 µM; TGI (SK-OV-3 ovarian): 2.47 µM; TGI (UACC-257 melanoma): 2.95 µM; TGI (PC-3 prostate): 0.712 µM; TGI (NCI-H226 lung): 0.223 µM; TGI (CAKI-1 renal): 0.551 µM; TGI (K-562 leukemia): > 100 µM; TGI (BT-549 breast): 3.61 µM; TGI (ACHN renal): 0.514 µM; TGI (MDA-MB-435): 0.401 µM; TGI (M14 melanoma): 0.335 µM; TGI (OVCAR-5 ovarian): 0.725 µM; TGI (OVCAR-3 ovarian): 1.54 µM; TGI (HOP-62 NSCLC): 0.385 µM; TGI (786-0 renal): 0.39 µM; TGI (SR leukemia): > 100 µM; TGI (UO-31 renal): 3.23 µM; TGI (RPMI-8226 leukemia): > 100 µM; TGI (MOLT-4 leukemia): > 100 µM; TGI (HCT-15 colon): 1.47 µM; TGI (MDA-MB-231 breast): 0.248 µM; TGI (IGROV1 ovarian): 0.678 µM; TGI (HCC-2998 colon): 0.376 µM; TGI (SF-539 CNS): 0.28 µM; TGI (SNB-75 CNS): 0.0976 µM; TGI (NCI-H460 lung): 0.213 µM; TGI (KM12 colon): 0.809 µM; TGI (NCI-H522 lung): 0.137 µM; TGI (OVCAR-8 ovarian): 0.376 µM; TGI (SN12C renal): 0.257 µM; TGI (MDA-N): 0.496 µM
